In ChEMBL document CHEMBL1201862, “PubChem BioAssay data set” (2004):
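Briefly, cells in 96-well plates were exposed to five compound concentrations for 48 h, and endpoints were estimated by linear interpolation. Abbreviation: GI50, concentration required for 50% inhibition of growth.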 The source made the active and inactive calls. Cut-off read from the data, not from the text of the source: active = GI50 up to about 1.1 µM and inactive = higher.

Assays:
Experiment in all cases: growth of human tumour cells (NCI), 48 h
HCT-15 = test system: HCT-15
HCC 2998 = test system: HCC 2998
HT-29 = test system: HT-29
HOP-62 = test system: HOP-62
SNB-75 = test system: SNB-75
SW-620 = test system: SW-620
Malme-3M = test system: Malme-3M
OVCAR-8 = test system: OVCAR-8
SK-MEL-5 = test system: SK-MEL-5
786-0 = test system: 786-0
COLO 205 = test system: COLO 205
HCT-116 = test system: HCT-116
CAKI-1 = test system: CAKI-1
TK-10 = test system: TK-10
RXF 393 = test system: RXF 393
RPMI-8226 = test system: RPMI-8226
T47D = test system: T47D
NCI-H226 = test system: NCI-H226
NCI-H522 = test system: NCI-H522

With `CC1=NOC(=O)/C1=C/c1ccc2c(c1)OCO2` the GI50 (HCT-15) was 20.8 µM, the GI50 (HCC 2998) was 28.9 µM (inactive) and the GI50 (HT-29) was 24.4 µM (inactive). For the same compound, the GI50 (HOP-62) was 19.2 µM (inactive), the GI50 (SNB-75) was 22.1 µM (inactive) and the GI50 (SW-620) was 21.1 µM (inactive). For the same compound, the GI50 (Malme-3M) was 43.6 µM (inactive), the GI50 (OVCAR-8) was 25.4 µM (inactive) and the GI50 (SK-MEL-5) was 34.1 µM (inactive). For the same compound, the GI50 (786-0) was 21.9 µM (inactive), the GI50 (COLO 205) was 17.7 µM (inactive) and the GI50 (HCT-116) was 34 µM (inactive). For the same compound, the GI50 (CAKI-1) was 17.3 µM (inactive), the GI50 (TK-10) was 39.2 µM (inactive) and the GI50 (RXF 393) was 16 µM (inactive). For the same compound, the GI50 (RPMI-8226) was 21.8 µM (inactive), the GI50 (T47D) was > 100 µM (inactive) and the GI50 (NCI-H226) was 21.6 µM (inactive). The GI50 (NCI-H522) was 38.5 µM (inactive).
With `Cc1cc(=O)n2nc(CN3CCCCC3)sc2n1` the GI50 (HCT-15) was over 100 µM, the GI50 (HCC 2998) was > 100 µM (inactive) and the GI50 (HT-29) was > 100 µM (inactive). For the same compound, the GI50 (HOP-62) was > 100 µM (inactive), the GI50 (SNB-75) was 54.5 µM (inactive) and the GI50 (SW-620) was > 100 µM (inactive). The GI50 (Malme-3M) was > 100 µM (inactive), the GI50 (OVCAR-8) was > 100 µM (inactive) and the GI50 (SK-MEL-5) was > 100 µM (inactive). The GI50 (786-0) was > 100 µM (inactive), the GI50 (COLO 205) was > 100 µM (inactive) and the GI50 (HCT-116) was > 100 µM (inactive). For the same compound, the GI50 (CAKI-1) was > 100 µM (inactive), the GI50 (TK-10) was > 100 µM (inactive) and the GI50 (RXF 393) was > 100 µM (inactive). For the same compound, the GI50 (RPMI-8226) was > 100 µM (inactive), the GI50 (T47D) was > 100 µM (inactive) and the GI50 (NCI-H226) was > 100 µM (inactive). For the same compound, the GI50 (NCI-H522) was > 100 µM (inactive).
In the case of `O=C1CCc2ccccc2O1` [DIHYDROCOUMARIN], the GI50 (HCT-15) is reported as over 100 µM, the GI50 (HCC 2998) is reported as > 100 µM (inactive) and the GI50 (HT-29) is reported as > 100 µM (inactive). The GI50 (HOP-62) was > 100 µM (inactive), the GI50 (SNB-75) was > 100 µM (inactive) and the GI50 (SW-620) was > 100 µM (inactive). For the same compound, the GI50 (Malme-3M) was > 100 µM (inactive), the GI50 (OVCAR-8) was > 100 µM (inactive) and the GI50 (786-0) was > 100 µM (inactive). For the same compound, the GI50 (COLO 205) was > 100 µM (inactive), the GI50 (HCT-116) was > 100 µM (inactive) and the GI50 (CAKI-1) was > 100 µM (inactive). The GI50 (TK-10) was > 100 µM (inactive), the GI50 (RXF 393) was > 100 µM (inactive) and the GI50 (RPMI-8226) was > 100 µM (inactive). The GI50 (T47D) was > 100 µM (inactive), the GI50 (NCI-H226) was > 100 µM (inactive) and the GI50 (NCI-H522) was > 100 µM (inactive).
With `CCOC(=O)/C=C(/C(=O)OCC)n1cc(C)c(=O)n(Cc2cn(CCCCOC(C)=O)nn2)c1=O` the GI50 (HCT-15) was 4.76 µM, the GI50 (HCC 2998) was 18.3 µM (inactive) and the GI50 (HT-29) was 8.05 µM (inactive). For the same compound, the GI50 (HOP-62) was 33.6 µM (inactive), the GI50 (SNB-75) was 16.3 µM (inactive) and the GI50 (SW-620) was 3.03 µM (inactive). The GI50 (OVCAR-8) was 12.9 µM (inactive), the GI50 (SK-MEL-5) was 25.6 µM (inactive) and the GI50 (786-0) was 6.49 µM (inactive). The GI50 (COLO 205) was 3.55 µM (inactive), the GI50 (HCT-116) was 22.7 µM (inactive) and the GI50 (CAKI-1) was 2.84 µM (inactive). For the same compound, the GI50 (TK-10) was 4.67 µM (inactive), the GI50 (RXF 393) was 17.6 µM (inactive) and the GI50 (RPMI-8226) was 5.13 µM (inactive). For the same compound, the GI50 (T47D) was 9.46 µM (inactive), the GI50 (NCI-H226) was 18.4 µM (inactive) and the GI50 (NCI-H522) was 1.88 µM (inactive).
With `C=O.NNCCc1n[nH]c(=O)n1N` the GI50 (HCT-15) was over 100 µM, the GI50 (HCC 2998) was > 100 µM (inactive) and the GI50 (HT-29) was > 100 µM (inactive). The GI50 (HOP-62) was > 100 µM (inactive), the GI50 (SNB-75) was 97.7 µM (inactive) and the GI50 (SW-620) was > 100 µM (inactive). For the same compound, the GI50 (Malme-3M) was > 100 µM (inactive), the GI50 (OVCAR-8) was > 100 µM (inactive) and the GI50 (SK-MEL-5) was > 100 µM (inactive). For the same compound, the GI50 (786-0) was > 100 µM (inactive), the GI50 (COLO 205) was > 100 µM (inactive) and the GI50 (HCT-116) was > 100 µM (inactive). The GI50 (CAKI-1) was > 100 µM (inactive), the GI50 (RXF 393) was > 100 µM (inactive) and the GI50 (RPMI-8226) was > 100 µM (inactive). For the same compound, the GI50 (T47D) was > 100 µM (inactive), the GI50 (NCI-H226) was > 100 µM (inactive) and the GI50 (NCI-H522) was > 100 µM (inactive).
In the case of `O=C(NCCCCCCNC(=O)c1cccc2ccccc12)Nc1cccc2ccccc12`, the GI50 (HCT-15) is reported as over 100 µM, the GI50 (HCC 2998) is reported as > 100 µM (inactive) and the GI50 (HT-29) is reported as > 100 µM (inactive). The GI50 (HOP-62) was > 100 µM (inactive), the GI50 (SNB-75) was > 100 µM (inactive) and the GI50 (SW-620) was > 100 µM (inactive). For the same compound, the GI50 (Malme-3M) was > 100 µM (inactive), the GI50 (OVCAR-8) was > 100 µM (inactive) and the GI50 (SK-MEL-5) was > 100 µM (inactive). For the same compound, the GI50 (786-0) was > 100 µM (inactive), the GI50 (COLO 205) was > 100 µM (inactive) and the GI50 (HCT-116) was > 100 µM (inactive). The GI50 (CAKI-1) was > 100 µM (inactive), the GI50 (TK-10) was > 100 µM (inactive) and the GI50 (RXF 393) was > 100 µM (inactive). For the same compound, the GI50 (RPMI-8226) was > 100 µM (inactive), the GI50 (T47D) was > 100 µM (inactive) and the GI50 (NCI-H522) was > 100 µM (inactive).
In the case of `Oc1c(Br)cc(CN(Cc2cc(Br)c(O)c(Br)c2)C2CCCCC2)cc1Br`, the GI50 (HCT-15) is reported as over 100 µM, the GI50 (HT-29) is reported as > 100 µM (inactive) and the GI50 (HOP-62) is reported as > 100 µM (inactive). For the same compound, the GI50 (SNB-75) was > 100 µM (inactive), the GI50 (SW-620) was > 100 µM (inactive) and the GI50 (Malme-3M) was > 100 µM (inactive). The GI50 (OVCAR-8) was > 100 µM (inactive), the GI50 (SK-MEL-5) was > 100 µM (inactive) and the GI50 (786-0) was > 100 µM (inactive). For the same compound, the GI50 (COLO 205) was > 100 µM (inactive), the GI50 (HCT-116) was > 100 µM (inactive) and the GI50 (CAKI-1) was > 100 µM (inactive). For the same compound, the GI50 (TK-10) was > 100 µM (inactive), the GI50 (RXF 393) was > 100 µM (inactive) and the GI50 (RPMI-8226) was > 100 µM (inactive). For the same compound, the GI50 (T47D) was > 100 µM (inactive), the GI50 (NCI-H226) was > 100 µM (inactive) and the GI50 (NCI-H522) was > 100 µM (inactive).
For `CC(=O)OC12c3ccccc3-c3ccccc3C1C1C(=O)OC(=O)C12` (stereo unspecified), the GI50 (HCT-15) was over 10 µM, the GI50 (HCC 2998) was > 10 µM (inactive) and the GI50 (HT-29) was > 10 µM (inactive). The GI50 (HOP-62) was > 10 µM (inactive), the GI50 (SNB-75) was > 10 µM (inactive) and the GI50 (SW-620) was > 10 µM (inactive). The GI50 (Malme-3M) was > 10 µM (inactive), the GI50 (OVCAR-8) was > 10 µM (inactive) and the GI50 (SK-MEL-5) was > 10 µM (inactive). The GI50 (786-0) was > 10 µM (inactive), the GI50 (COLO 205) was > 10 µM (inactive) and the GI50 (CAKI-1) was > 10 µM (inactive). The GI50 (TK-10) was > 10 µM (inactive), the GI50 (RXF 393) was > 10 µM (inactive) and the GI50 (RPMI-8226) was > 10 µM (inactive). For the same compound, the GI50 (T47D) was > 10 µM (inactive), the GI50 (NCI-H226) was > 10 µM (inactive) and the GI50 (NCI-H522) was > 10 µM (inactive).
